Results taken from patent US6172112A, “Retinoids and use thereof” (priority 1999, dated 2001).
“Also recorded” adds a separate entry of the source. Where two headings read alike, the source gives them in different places.

What was measured:
[1] = test system: mouse skin papilloma; assay: mouse skin antipapilloma assay; conditions: 45.9 nmol dose
Procedure: The mouse skin antipapilloma assay measured the ED50 values for retinoid tumor inhibition on the dorsal skin of mice. The inhibition of mouse skin papilloma by retinoids was performed according to a modification of the procedure developed by Verma and Boutwell (14) as reported previously by Muccio et al. (8).
The UAB30 retinoids were evaluated next for their activity in preventing the chemical induction of papillomas on mouse skin (14).

[2] = biological target: T1, RARβ (Homo sapiens, UniProt P10826); assay: RARβ-mediated transcriptional activation in CV-1 cells; type: cell-based
T1 construct: expressed in transfected cells; host or cells: CV-1 cells
T1 sequence (P10826 1-455): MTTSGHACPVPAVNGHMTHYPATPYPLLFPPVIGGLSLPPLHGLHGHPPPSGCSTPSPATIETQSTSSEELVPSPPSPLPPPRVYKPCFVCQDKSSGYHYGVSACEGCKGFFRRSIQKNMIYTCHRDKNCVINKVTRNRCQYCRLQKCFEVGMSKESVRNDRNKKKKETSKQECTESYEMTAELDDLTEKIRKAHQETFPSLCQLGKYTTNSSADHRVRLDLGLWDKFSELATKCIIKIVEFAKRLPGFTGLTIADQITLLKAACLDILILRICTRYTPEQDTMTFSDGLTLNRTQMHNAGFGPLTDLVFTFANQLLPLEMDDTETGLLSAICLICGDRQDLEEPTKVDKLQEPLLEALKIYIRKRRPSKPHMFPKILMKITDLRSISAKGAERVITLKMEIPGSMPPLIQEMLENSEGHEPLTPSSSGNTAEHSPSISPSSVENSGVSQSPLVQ
Procedure: (§1) These assays were performed in CV-1 cells with the RAR or RXR gene and the chloramphenicol acetyltransferase (CAT) reporter gene containing TREpal with a thymidine kinase promoter [(TREpal)2 -tk-CAT]. Twenty-four hours after transfection, cells were treated with a single dose of retinoid and the cell extracts were assayed for b-galactosidase and CAT activity. The antagonistic effects of UAB30 retinoids on the transcription of RAR-α were also determined in CV-1 cells. The methods are nearly identical to those used to perform transcriptional assays. These studies utilized the CAT reporter gene [(TREpal)2 -tk-CAT]. […] After 24 hours, cells were harvested and the transcriptional effects were measured in relative CAT activity, after correction with β-galactosidase activity for transfection efficiency. […] Experiments were performed in triplicate and the data were averaged.
(§2) UAB30 isomers were evaluated in assays which measures their functional activity within cells to induce RARα-, RARβ-, and RARγ-mediated transcriptional activity. CV-1 cells were transiently transfected with DNA plasmid from the appropriate RAR subtype and (TREpal)2 -tk-CAT (9, 19).

[3] = biological target: T2, RARγ (Homo sapiens, UniProt P13631); assay: RARγ-mediated transcriptional activation in CV-1 cells; type: cell-based
T2 sequence (P13631 1-454): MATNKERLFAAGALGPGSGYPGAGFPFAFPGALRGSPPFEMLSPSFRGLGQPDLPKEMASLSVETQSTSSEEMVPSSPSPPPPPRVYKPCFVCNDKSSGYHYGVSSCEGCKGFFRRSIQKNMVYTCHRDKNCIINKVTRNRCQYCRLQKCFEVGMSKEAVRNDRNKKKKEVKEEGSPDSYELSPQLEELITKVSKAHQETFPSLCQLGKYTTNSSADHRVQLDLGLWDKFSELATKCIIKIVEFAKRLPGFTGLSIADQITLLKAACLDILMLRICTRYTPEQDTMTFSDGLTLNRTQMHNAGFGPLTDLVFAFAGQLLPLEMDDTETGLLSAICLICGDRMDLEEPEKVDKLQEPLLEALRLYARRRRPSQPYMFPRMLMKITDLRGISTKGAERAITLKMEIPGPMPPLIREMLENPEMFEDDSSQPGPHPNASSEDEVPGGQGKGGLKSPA
Procedure: as §1, §2

[4] = biological target: T2, RARγ; assay: nuclear receptor radiolabeled competition binding, RARγ
Procedure: (§3) For active retinoids, IC50 values were determined by titration with varying concentrations of UAB retinoids.

[5] = biological target: T1, RARβ; assay: nuclear receptor radiolabeled competition binding, RARβ
Procedure: as §3

[6] = biological target: T3, RARα (Homo sapiens, UniProt P10276); assay: nuclear receptor radiolabeled competition binding, RARα
T3 sequence (P10276 1-462): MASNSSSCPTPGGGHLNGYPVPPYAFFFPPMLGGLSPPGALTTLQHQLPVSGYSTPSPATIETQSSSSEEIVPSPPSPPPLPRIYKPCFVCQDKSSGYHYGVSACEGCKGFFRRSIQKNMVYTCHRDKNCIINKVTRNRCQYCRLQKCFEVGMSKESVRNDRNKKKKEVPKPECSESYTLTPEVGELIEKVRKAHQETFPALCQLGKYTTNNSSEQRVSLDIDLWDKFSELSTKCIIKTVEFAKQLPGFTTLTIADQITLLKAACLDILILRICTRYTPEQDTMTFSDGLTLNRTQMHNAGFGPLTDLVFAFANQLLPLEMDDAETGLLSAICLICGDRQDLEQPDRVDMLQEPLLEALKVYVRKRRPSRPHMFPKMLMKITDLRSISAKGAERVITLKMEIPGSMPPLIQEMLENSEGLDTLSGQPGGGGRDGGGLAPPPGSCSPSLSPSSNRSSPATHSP
Procedure: as §3

[7] = test system: NB4 cells; assay: retinoid induction of differentiation of NB4 cells (NBT); type: cell-based, Human; conditions: for EC50: NB-4, 96 h, read-out: ED50 (nM) NB4
Procedure: NB4 cells were obtained from Dr. Waxman after he received them from Dr. M. Lanotte. […] The cell were grown at 37° C. in a humidified atmosphere of 5% CO2 in air. Cell density was estimated on an electronic particle counter (Coulter electronic, Hialeah, Fla.) and cell viability with trypan bleu dye exclusion.
(§4) Human leukemia cell line HL-60 and NB4 were used for measuring the ability of retinoids to induce terminal differentiation. Both cell lines are predominantly promyelocytes and are induced by retinoic acid to mature to cells with many characteristics of mature granulocytes. The induction of this differentiation is the basis for assaying one of the biological activities of retinoic acid analogues. For the differentiation assay, HL-60 or NB4 cells were grown in nutrient medium with fetal bovine serum as detailed by Breitman (15).
(§5) The percentage of cells that gained this marker was measured microscopically. The percentage of positive cells was then plotted as a function of the retinoid concentration to determine ED50 and ED30 values used in the formation of isoboles.

[8] = biological target: T3, RARα; assay: cell-based
Procedure: as §1, §2

[9] = biological target: T4, RARα/RXRα (Homo sapiens, UniProt P10276+P19793); assay: cell-based
T4 sequence (P10276 1-462): T3 sequence (P10276 1-462)
T4 sequence (P19793 1-462): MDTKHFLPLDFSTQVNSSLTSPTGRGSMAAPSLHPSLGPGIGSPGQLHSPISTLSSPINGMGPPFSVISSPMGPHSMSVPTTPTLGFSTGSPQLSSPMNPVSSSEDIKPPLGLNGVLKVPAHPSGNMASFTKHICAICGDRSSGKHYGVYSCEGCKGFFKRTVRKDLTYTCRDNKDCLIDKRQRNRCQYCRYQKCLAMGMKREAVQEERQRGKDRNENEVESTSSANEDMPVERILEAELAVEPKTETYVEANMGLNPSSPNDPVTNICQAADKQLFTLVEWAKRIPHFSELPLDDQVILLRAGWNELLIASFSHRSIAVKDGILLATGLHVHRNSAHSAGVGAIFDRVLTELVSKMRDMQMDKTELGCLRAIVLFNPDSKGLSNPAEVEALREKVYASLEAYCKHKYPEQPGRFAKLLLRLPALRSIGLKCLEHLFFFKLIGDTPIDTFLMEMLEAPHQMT
Procedure: as §1

[10] = test system: JMML cells; assay: inhibition of JMML spontaneous CFU-GM colony formation; conditions: Homo sapiens
Procedure: Mononuclear cells were separated by density gradient centrifugation, washed, and frozen in aliquots. […] No growth factors or other exogenous stimuli were added to the cultures. UAB retinoids and retinoic acid isomers were dissolved in either 100% ethanol or DMSO. Appropriate dilutions were made, and controls using the respective ethanol or DMSO concentration were set up in parallel. Varying doses of retinoids were added only once, 24 hours after initiation of the soft agar assays, by pipetting the retinoid solution on top of the soft agar and allowing the solution to enter the agar and interact with the cells by diffusion. The cultures were incubated for 14 days at 37° C. in a humidified atmosphere with 5% CO2.

[11] = test system: juvenile myelomonocytic leukemia (JMML); conditions: children with JMML; cited from earlier work
[12] = test system: HL-60 cells; assay: retinoid induction of differentiation of HL-60 cells (NBT); type: cell-based; conditions: Homo sapiens, HL-60, 96 h; 4-day induction of differentiation; read-out: ED50 (nM) HL-60
Procedure: as §4, §5

[13] = test system: mouse skin papilloma; conditions: 45.9 nmol dose; ref (8); cited from earlier work
[14] = test system: RARs; assay: binding to RARs (subtypes stated together in text)
Procedure: as §3

[15] = biological target: T5, RXRα (Homo sapiens, UniProt P19793); conditions: taken from Alam et al (9); cited from earlier work
[16] = biological target: T1, RARβ; conditions: taken from Alam et al (9); cited from earlier work
[17] = biological target: T5, RXRα; assay: RXRα homodimer-mediated transcriptional activation in CV-1 cells; type: cell-based
Procedure: as §1

[18] = biological target: T2, RARγ; conditions: taken from Alam et al (9); cited from earlier work
[19] = biological target: T3, RARα; conditions: taken from Alam et al (9); cited from earlier work
[20] = read-out: normalized percent inhibition of CFU-GM colony growth, patient J83 (%), 10^-6 M
[21] = read-out: normalized percent inhibition of CFU-GM colony growth, patient J83 (%), 10^-7 M
[22] = read-out: normalized percent inhibition of CFU-GM colony growth, patient J84 (%), 10^-6 M
[23] = read-out: normalized percent inhibition of CFU-GM colony growth, patient J83 (%)
[24] = read-out: normalized percent inhibition of CFU-GM colony growth, patient J84 (%)

CCC1=C(C(C)C)/C(=C/C(C)=C\C=C\C(C)=C\C(=O)O)CCC1 [(9Z)-UAB8]
prevention of papilloma (tumor) formation [1]: 54% | EC50 [2]: > 2000 nM | EC50 [3]: 190 nM | IC50 [4]: > 1000 nM | IC50 [5]: > 1000 nM | IC50 [6]: > 1000 nM | EC30 ([7]; Homo sapiens, NB-4, 72 h, retinoid alone, 3 days, read-out: ED30 NB4 cell differentiation): > 3000 µM | EC50 [8]: > 1 µM | EC50 [9]: > 2 µM

CC1=C(/C=C/C(C)=C/C=C/C(C)=C\C(=O)O)C(C)(C)CCC1 [(13Z)-RA, reference compound]
inhibition at 1 µM ([10]; read-out: normalized percent inhibition of CFU-GM colony growth, patient J43 (%), 10^-6 M): 109% | inhibition at 1 µM [10, 20]: 94% | inhibition at 0.1 µM [10, 21]: 86% | inhibition at 1 µM [10, 22]: 87% | share of children in whom excessive myeloproliferation is controlled [11]: up to 50%

CC(=C\C=C\C(C)=C\C(=O)O)/C=C1\CCCc2ccccc21 [(all-E)-UAB30, (2E,4E,6E,8E)-8-(3',4'-Dihydro-1'(2'H)-naphthalen-1'-ylidene)3,7-dimethyl-2,4,6-octatrienoic acid]
inhibition at 0.1 µM [10, 23]: 68% | inhibition at 1 µM [10, 23]: 72% | inhibition at 0.01 µM [10, 24]: 28% | inhibition at 0.1 µM [10, 24]: 48% | inhibition at 1 µM [10, 24]: 57% | prevention of papilloma (tumor) formation [1]: 59% | EC50 ([7]; Homo sapiens): > 10000 nM | dose up to which not active in NB4 cell differentiation ([7]; retinoid alone, 3 days): > 40 mM | NB4 cell differentiation ([7]; retinoid alone, listed as all-trans-UAB30): inactive in NB4 cell differentiation; also recorded: not induce differentiation of NB4 cells | EC50 [12]: > 10000 nM

CCC1=C(C(C)C)/C(=C/C(C)=C\C=C\C(C)=C/C(=O)O)CCC1 [(9Z, 13Z)-UAB8]
EC50 ([7]; Homo sapiens, 4-day induction of differentiation): > 10000 nM | EC50 [12]: > 10000 nM

CC1=C(/C=C/C(C)=C\C=C\C(C)=C\C(=O)O)C(C)(C)CCC1 [(9Z)-RA, 9-cis-retinoic acid, reference compound]
inhibition at 0.1 µM ([10]; read-out: normalized percent inhibition of CFU-GM colony growth, patient J43 (%), 10^-7 M): 98% | inhibition at 1 µM [10, 20]: 82% | inhibition at 0.1 µM [10, 21]: 72% | inhibition at 1 µM [10, 22]: 95% | prevention of papilloma (tumor) formation [13]: 95% | NB4 cell differentiation ([7]; retinoid alone): comparable to that of ATRA

CC(=C/C(=O)O)/C=C/C=C(C)/C=C1\CCCc2ccccc21 [(13Z)-UAB30, (2E,4E,6E,8E)-8-(3',4'-Dihydro-1'(2'H)-naphthalen-1'-ylidene)3,7-dimethyl-2,4,6-octatrienoic acid]
inhibition at 0.1 µM [10, 23]: 82% | inhibition at 1 µM [10, 23]: 88% | inhibition at 0.01 µM [10, 24]: 25% | inhibition at 0.1 µM [10, 24]: 72% | inhibition at 1 µM [10, 24]: 80% | binding to the RAR subtypes [14]: ineffective binder | EC50 ([7]; Homo sapiens): > 10000 nM | EC50 [12]: > 10000 nM

CCC1=C(C(C)C)/C(=C/C(C)=C/C=C/C(C)=C\C(=O)O)CCC1 [(13Z)-UAB8]
inhibition at 1 µM ([10]; read-out: normalized percent inhibition of CFU-GM colony growth, patient J43 (%)): 80% | inhibition at 0.01 µM [10, 24]: 0% | inhibition at 0.1 µM [10, 24]: 18% | IC50 [15]: > 1000 nM | EC50 [3]: 42 nM | IC50 [16]: 371 nM | EC50 [17]: > 2 µM | EC50 [12]: > 10000 nM | IC50 [18]: 708 nM | EC50 [8]: 0.051 µM | EC50 [9]: 0.45 µM | IC50 [19]: 900 nM
